{"source": "ChEMBL document CHEMBL1135015", "about": "“Silanediol-based inhibitor of thermolysin” (Bioorg Med Chem Lett, 2002)"}
{"molecular_target": "T1, Thermolysin (Bacillus thermoproteolyticus, UniProt P00800)", "T1 sequence (P00800 whole entry)": "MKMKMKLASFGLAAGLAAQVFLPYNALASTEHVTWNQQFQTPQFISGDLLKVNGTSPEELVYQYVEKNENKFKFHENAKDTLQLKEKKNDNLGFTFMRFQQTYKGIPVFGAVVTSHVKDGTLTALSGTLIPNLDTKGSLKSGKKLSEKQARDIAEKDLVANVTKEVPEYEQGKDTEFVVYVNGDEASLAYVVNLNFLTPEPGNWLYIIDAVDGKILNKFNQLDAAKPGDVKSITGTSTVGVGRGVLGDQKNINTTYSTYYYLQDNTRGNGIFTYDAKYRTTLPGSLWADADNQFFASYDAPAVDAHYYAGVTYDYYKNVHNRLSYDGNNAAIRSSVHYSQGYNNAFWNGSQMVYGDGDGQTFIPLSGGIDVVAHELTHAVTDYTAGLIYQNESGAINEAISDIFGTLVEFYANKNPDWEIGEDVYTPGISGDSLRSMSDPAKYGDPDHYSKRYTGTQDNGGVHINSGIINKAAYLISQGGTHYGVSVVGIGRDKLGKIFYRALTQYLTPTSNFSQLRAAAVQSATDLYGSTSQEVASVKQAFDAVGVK", "assay": "Competitive inhibition of thermolysin evaluated using the substrate FAGLA (Sigma); Competitive binding observed", "units": {"Ki": "nM"}}
{"smiles": "CC(C)C[C@H](C[Si](O)(O)CNC(=O)CCc1ccccc1)C(=O)N[C@@H](CC(C)C)C(=O)O", "Ki": 41}
{"smiles": "CC(C)C[C@@H](CO)C[Si](CN)(c1ccccc1)c1ccccc1", "Ki": 41}
{"smiles": "CC(C)C[C@H](CP(=O)(O)CNC(=O)OCc1ccccc1)C(=O)N[C@@H](CC(C)C)C(=O)O", "Ki": 11}
